Results from patent publication US20230398163A1, “FRUIT EXTRACTS FOR USE IN THE TREATMENT OF NEURODEGENERATIVE DISEASES” (NEUROSCIENCE PHARMA SPA, priority 2020, published 2023).

Tested on: PC12 cells
Assay: MTT cell viability assay, extract alone
Format: cell-based
Conditions: addition of FCCP
Experimental: Cellular health was quantified using a 3-(4,5-dimethylthizol-2-yl)-2,5-diphenyltetrazolium bromide (MTT) assay, which indicates cell viability. Cultured PC12 cells were incubated in MTT (1 mg/ml) in 1X DPBS (Dulbecco's phosphate-buffered saline) for 30 minutes, in the presence (or absence) of maqui berry extract provided a concentrations ranging from 0.000081 mg/l to 81 mg/l. Precipitated MTT was dissolved using isopropanol for 15 minutes prior to being added to the culture medium. The cell absorbance was measured in a microplate reader (Novostar, BGM, Germany) at two wavelengths: 560 nm and 620 nm. The difference in cellular absorbance was quantified between the two wavelengths using NovoStar software across experimental conditions.

## N#CC(C#N)=NNc1ccc(OC(F)(F)F)cc1 [FCCP, Carbonyl cyanide 4-(trifluoromethoxy)phenylhydrazone]
  cell viability percent relative to control (MTT): significant decrease in cell viability percent relative to control levels
